Reference: ChEMBL document CHEMBL5620403, “Design, synthesis, activity and molecular dynamics studies of 1,3,4-thiadiazole derivatives as selective allosteric inhibitors of SHP2 for the treatment of cancer” (Eur J Med Chem, 2023)
pIC50: −log10 of the molar value. Calls of active or inactive are those of the source. The rule behind the calls is not given here.

What was measured:
MV4-11 [1] = test: Induction of apoptosis in human MV4-11 cells assessed as viable cells at 2.5 uM measured after 4 hrs by Annexin V-FITC/7-AAD staining based flow cytometric analysis (reference value: 95.9%); type: functional; conditions: read-out: Activity
MV4-11 [2] = test: Induction of apoptosis in human MV4-11 cells assessed as late apoptotic cells at 1.25 uM measured after 4 hrs by Annexin V-FITC/7-AAD staining based flow cytometric analysis (reference value: 1.58%); type: functional
[3] = molecular target: T1, Tyrosine-protein phosphatase non-receptor type 11 (Homo sapiens, UniProt Q06124); test: Inhibition of full length wild type recombinant human IRS-1 peptide activated SHP2 (1 to 525 residues) using DIPMUP as substrate preincubated for 30 mins followed by substrate addition and measured after 30 mins by fluorescence based analysis
T1 sequence (Q06124 whole entry): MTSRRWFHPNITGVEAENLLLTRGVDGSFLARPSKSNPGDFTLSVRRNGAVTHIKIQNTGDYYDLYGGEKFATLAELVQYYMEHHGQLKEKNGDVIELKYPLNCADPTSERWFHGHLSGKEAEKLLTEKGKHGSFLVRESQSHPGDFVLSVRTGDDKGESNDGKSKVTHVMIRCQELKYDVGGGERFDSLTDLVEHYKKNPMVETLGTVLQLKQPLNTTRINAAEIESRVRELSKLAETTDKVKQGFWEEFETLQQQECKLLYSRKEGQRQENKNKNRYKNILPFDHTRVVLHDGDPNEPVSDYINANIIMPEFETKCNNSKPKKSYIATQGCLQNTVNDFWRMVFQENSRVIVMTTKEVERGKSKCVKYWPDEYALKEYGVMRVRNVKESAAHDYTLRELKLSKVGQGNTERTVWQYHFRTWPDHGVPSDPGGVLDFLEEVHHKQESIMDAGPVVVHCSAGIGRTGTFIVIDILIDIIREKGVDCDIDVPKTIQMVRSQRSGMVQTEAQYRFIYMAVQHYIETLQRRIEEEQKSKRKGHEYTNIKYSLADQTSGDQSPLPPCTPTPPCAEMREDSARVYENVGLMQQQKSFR

MV4-11 [4] = test: Induction of apoptosis in human MV4-11 cells assessed as early apoptotic cells at 5 uM measured after 4 hrs by Annexin V-FITC/7-AAD staining based flow cytometric analysis (reference value: 2.13%); type: functional
MV4-11 [5] = test: Induction of apoptosis in human MV4-11 cells assessed as necrotic cells at 5 uM measured after 4 hrs by Annexin V-FITC/7-AAD staining based flow cytometric analysis (reference value: 0.041%); type: functional
MV4-11 [6] = test: Induction of apoptosis in human MV4-11 cells assessed as late apoptotic cells at 2.5 uM measured after 4 hrs by Annexin V-FITC/7-AAD staining based flow cytometric analysis (reference value: 1.58%); type: functional
MV4-11 [7] = test: Induction of apoptosis in human MV4-11 cells assessed as viable cells at 5 uM measured after 4 hrs by Annexin V-FITC/7-AAD staining based flow cytometric analysis (reference value: 95.9%); type: functional; conditions: read-out: Activity
MV4-11 [8] = test: Induction of apoptosis in human MV4-11 cells assessed as early apoptotic cells at 1.25 uM measured after 4 hrs by Annexin V-FITC/7-AAD staining based flow cytometric analysis (reference value: 2.48%); type: functional
[9] = molecular target: T2, Tyrosine-protein phosphatase non-receptor type 11 (Homo sapiens) (UniProt Q06124); test: Inhibition of SHP2 in human MV4-11 cells assessed as reduction in Akt phosphorylation level at upto 20 uM measured after 4 hrs by Western blot analysis; type: cell-based
T2 sequence (whole entry): T1 sequence (Q06124 whole entry)

MDA-MB-468 = test: Antiproliferative activity against human MDA-MB-468 cells assessed as inhibition of cell growth measured after 72 hrs by CCK8 method; type: functional, cell-based; conditions: MDA-MB-468, 72 h
MV4-11 [10] = test: Induction of apoptosis in human MV4-11 cells assessed as necrotic cells at 5 uM measured after 1 hrs by Annexin V-FITC/7-AAD staining based flow cytometric analysis (reference value: 0.068%); type: functional
MV4-11 [11] = test: Induction of apoptosis in human MV4-11 cells assessed as viable cells at 5 uM measured after 2 hrs by Annexin V-FITC/7-AAD staining based flow cytometric analysis (reference value: 96.8%); type: functional; conditions: read-out: Activity

Work on C[C@@H]1OCC2(CCN(c3nnc(Sc4cccc(Cl)c4Cl)s3)CC2)[C@@H]1N yielded a viability at 2.5 µM (MV4-11 [1]) of 96.7%, an Activity (MV4-11 [2]) of 1.93% and a pIC50 [3] of 6.60. It also gave an Activity (MV4-11 [4]) of 10.8%, an Activity (MV4-11 [5]) of 1.55% and an Activity (MV4-11 [6]) of 2.3%. The viability at 5 µM (MV4-11 [7]) was 84.1%, the Activity (MV4-11 [8]) was 2.04% and the inhibition [9] was “Active”. The pIC50 (MDA-MB-468) was 4.84, the Activity (MV4-11 [10]) was 0.91% and the viability at 5 µM (MV4-11 [11]) was 80.9%.
